This passage reports IC50 results from publication PMC8285493 (Nature Communications, 2021).

Structures are written as SMILES. A value given as a limit tells only on which side of the number the result lay.

Common to all, as to assay: biochemical
Set-up in all cases: PDE enzyme inhibition, 3H-cAMP / 3H-cGMP scintillation proximity assay
Background: In a scintillation proximity assay essentially only radioactivity close to the scintillant gives light.

The target of one assay is T1, PDE6 (Bos taurus, UniProt P11541+P23439).
T1 construct: gene PDE6A; native, purified from rod outer segments of bovine retinae
T1 sequence (P11541 1-859): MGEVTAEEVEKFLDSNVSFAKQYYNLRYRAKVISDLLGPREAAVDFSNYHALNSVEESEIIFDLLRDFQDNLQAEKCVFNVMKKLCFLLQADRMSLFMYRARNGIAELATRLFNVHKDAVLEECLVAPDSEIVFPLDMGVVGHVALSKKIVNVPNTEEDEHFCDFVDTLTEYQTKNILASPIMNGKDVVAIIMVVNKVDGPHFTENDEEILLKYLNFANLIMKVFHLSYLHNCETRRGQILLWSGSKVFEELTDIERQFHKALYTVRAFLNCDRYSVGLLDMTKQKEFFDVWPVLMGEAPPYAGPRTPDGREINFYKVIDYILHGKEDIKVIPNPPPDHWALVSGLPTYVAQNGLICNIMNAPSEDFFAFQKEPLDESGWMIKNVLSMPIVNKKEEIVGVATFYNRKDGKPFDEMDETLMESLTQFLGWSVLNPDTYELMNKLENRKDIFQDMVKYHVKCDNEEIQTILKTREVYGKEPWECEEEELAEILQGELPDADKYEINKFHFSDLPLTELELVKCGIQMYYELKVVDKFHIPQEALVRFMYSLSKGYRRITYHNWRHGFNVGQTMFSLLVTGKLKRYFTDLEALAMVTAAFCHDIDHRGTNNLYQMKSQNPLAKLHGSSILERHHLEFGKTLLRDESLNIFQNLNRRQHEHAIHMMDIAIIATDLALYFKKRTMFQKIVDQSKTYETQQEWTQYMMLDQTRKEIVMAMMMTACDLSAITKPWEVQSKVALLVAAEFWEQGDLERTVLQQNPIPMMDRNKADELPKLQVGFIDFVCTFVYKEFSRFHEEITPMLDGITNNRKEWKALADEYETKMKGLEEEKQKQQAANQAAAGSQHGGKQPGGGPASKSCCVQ
T1 sequence (P23439 1-853): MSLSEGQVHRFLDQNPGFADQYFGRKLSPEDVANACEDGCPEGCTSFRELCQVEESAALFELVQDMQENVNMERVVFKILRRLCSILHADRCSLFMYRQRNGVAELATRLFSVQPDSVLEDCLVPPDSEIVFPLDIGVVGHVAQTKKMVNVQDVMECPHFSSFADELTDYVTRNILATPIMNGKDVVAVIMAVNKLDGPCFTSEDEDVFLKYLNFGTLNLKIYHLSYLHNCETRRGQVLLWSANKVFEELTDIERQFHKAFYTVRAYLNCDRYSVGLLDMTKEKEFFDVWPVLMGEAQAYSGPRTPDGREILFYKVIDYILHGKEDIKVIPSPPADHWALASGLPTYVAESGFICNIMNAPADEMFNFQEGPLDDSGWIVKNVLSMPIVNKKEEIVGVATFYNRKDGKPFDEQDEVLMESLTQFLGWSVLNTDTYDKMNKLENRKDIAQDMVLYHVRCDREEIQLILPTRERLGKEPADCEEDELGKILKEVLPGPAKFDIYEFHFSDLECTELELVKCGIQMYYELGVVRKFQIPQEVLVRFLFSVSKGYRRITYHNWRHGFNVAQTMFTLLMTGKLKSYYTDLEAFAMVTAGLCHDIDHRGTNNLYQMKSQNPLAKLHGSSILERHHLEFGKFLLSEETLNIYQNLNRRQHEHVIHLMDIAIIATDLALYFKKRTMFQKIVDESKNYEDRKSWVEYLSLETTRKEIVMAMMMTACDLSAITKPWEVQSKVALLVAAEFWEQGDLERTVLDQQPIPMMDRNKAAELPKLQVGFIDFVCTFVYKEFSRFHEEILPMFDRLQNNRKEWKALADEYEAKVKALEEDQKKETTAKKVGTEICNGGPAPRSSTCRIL
The method, then: (§1) PDE activity assays were performed as previously described. Briefly, cell-free extracts were prepared from Sf9 insect cells recombinantly expressing full-length human PDEs (PDE2A, 3A, 3B, 4B, 7B, 8A, 9A, 10A, 11A). PDE5 was purified from human platelets by homogenization (Microfluidizer, 800 bar, 3 passages), centrifugation (75,000 × g, 60 min, 4 °C), and ion exchange chromatography of the supernatant on a Mono Q 10/10 column (linear NaCl gradient, eluted with 0.2–0.3 M NaCl in a buffer containing 20 mM Hepes pH 7.2 and 2 mM MgCl2). Fractions containing PDE5 activity were pooled and stored at −80 °C. PDE6 was purified from rod outer segments of bovine retinae by Dr. Körschen, Forschungszentrum Jülich, Germany[34]. Bovine PDE1 was purchased from Sigma-Aldrich (P9529, Taufkirchen, Germany). Enzyme inhibition studies were carried out using the commercially available 3H-cAMP and 3H-cGMP Scintillation Proximity Assay (SPA) systems (RPNQ0150, Perkin-Elmer, Rodgau, Germany).

Another assay deals with T2, PDE3B (Homo sapiens, UniProt Q13370).
T2 construct: full-length human PDE3B, Sf9 cell-free extract
How it is done:
as §1

Another assay has as its target T3, PDE9A (Homo sapiens, UniProt O76083).
T3 construct: full-length, Sf9 cell-free extract
The method, then: as §1

The target of another assay is T4, PDE11A (Homo sapiens, UniProt Q9HCR9).
T4 construct: full-length, Sf9 cell-free extract
How it is done: as §1

The target in a further assay is T5, PDE2A (Homo sapiens, UniProt O00408).
T5 construct: full-length, Sf9 cell-free extract
The method, then: as §1

In the next assay the target is T6, PDE5 (Homo sapiens, UniProt O76074).
T6 construct: gene PDE5A; native, purified from human platelets
How it is done: as §1

A further assay has as its target T7, PDE10A (Homo sapiens, UniProt Q9Y233).
T7 construct: full-length, Sf9 cell-free extract
The method, then: as §1

For the next assay, the target named is T8, PDE7B (Homo sapiens, UniProt Q9NP56).
T8 construct: full-length, Sf9 cell-free extract
The method, then: as §1

Another assay has as its target T9, PDE3A (Homo sapiens, UniProt Q14432).
T9 construct: full-length, Sf9 cell-free extract
The method, then:
as §1

The next assay addresses T10, PDE8A (Homo sapiens, UniProt O60658).
T10 construct: full-length, Sf9 cell-free extract
How it is done:
as §1

T2 sequence (Q13370 whole entry): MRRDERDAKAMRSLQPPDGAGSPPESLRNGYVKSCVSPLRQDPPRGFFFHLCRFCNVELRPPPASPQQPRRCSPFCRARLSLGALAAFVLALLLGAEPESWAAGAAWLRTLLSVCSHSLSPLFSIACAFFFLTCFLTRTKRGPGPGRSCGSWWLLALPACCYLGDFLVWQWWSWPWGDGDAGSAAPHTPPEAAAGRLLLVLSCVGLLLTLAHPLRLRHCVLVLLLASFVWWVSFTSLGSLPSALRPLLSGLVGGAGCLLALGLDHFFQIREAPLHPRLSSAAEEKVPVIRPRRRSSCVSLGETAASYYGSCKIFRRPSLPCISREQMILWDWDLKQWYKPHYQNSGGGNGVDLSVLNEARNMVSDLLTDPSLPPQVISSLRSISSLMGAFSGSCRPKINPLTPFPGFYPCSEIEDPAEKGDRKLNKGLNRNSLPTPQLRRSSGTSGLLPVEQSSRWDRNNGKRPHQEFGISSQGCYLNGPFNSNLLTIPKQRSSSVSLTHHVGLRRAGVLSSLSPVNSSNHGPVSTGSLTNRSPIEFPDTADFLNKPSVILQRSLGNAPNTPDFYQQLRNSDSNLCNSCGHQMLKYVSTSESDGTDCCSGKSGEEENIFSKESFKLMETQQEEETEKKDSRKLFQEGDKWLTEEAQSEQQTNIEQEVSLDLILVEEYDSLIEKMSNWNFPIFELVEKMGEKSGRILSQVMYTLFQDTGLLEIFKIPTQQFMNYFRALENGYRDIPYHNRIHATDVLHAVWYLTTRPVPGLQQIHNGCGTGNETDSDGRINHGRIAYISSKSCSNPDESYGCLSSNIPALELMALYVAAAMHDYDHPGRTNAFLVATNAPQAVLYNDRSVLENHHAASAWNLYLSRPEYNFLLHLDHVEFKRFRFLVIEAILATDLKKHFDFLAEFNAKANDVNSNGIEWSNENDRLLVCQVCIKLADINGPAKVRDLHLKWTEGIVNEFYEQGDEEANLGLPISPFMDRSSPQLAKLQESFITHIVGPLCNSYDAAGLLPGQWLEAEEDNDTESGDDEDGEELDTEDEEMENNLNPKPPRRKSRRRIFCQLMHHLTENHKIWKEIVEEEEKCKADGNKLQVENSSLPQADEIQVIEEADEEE
T9 sequence (Q14432 whole entry): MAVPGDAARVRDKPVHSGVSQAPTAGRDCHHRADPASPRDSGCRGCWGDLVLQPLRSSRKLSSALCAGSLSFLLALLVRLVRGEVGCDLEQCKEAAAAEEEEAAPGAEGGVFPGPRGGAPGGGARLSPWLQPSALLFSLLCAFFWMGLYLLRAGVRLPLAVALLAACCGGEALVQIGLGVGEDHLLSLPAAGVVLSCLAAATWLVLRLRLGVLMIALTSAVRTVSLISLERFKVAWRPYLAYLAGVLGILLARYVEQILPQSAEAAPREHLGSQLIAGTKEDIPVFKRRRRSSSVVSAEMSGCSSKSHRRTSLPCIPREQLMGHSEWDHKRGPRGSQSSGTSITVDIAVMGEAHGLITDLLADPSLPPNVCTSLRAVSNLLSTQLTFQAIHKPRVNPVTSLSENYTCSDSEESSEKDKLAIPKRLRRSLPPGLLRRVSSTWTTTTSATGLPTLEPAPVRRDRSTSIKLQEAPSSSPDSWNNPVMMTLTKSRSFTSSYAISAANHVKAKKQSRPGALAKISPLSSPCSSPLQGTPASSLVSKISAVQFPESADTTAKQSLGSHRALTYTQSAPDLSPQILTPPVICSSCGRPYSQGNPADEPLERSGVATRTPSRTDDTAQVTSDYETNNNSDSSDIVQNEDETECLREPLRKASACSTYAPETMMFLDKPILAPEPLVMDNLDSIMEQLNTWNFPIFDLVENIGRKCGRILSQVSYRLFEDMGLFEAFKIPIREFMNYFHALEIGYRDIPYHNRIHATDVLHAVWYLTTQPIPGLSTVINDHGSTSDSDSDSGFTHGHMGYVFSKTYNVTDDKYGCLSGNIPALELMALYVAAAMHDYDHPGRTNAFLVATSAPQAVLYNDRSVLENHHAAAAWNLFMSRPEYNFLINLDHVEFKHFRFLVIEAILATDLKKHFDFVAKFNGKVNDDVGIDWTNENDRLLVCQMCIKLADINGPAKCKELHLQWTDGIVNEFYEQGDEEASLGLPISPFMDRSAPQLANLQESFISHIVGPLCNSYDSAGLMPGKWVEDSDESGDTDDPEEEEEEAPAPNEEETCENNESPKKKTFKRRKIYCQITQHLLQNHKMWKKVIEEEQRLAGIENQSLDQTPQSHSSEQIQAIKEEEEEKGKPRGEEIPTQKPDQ
T8 sequence (Q9NP56 whole entry): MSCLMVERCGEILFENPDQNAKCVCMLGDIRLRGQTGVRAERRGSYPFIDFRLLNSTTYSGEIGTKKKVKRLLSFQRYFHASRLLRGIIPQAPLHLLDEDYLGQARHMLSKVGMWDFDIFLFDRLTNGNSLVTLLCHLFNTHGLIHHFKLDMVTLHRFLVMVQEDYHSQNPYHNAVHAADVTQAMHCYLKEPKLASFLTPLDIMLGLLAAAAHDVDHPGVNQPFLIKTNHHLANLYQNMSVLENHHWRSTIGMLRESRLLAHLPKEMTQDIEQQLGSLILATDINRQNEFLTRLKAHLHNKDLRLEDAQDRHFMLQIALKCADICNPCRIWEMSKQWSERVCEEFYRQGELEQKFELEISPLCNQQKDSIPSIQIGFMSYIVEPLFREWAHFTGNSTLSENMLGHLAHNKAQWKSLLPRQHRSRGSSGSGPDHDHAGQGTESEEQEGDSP
T10 sequence (O60658 whole entry): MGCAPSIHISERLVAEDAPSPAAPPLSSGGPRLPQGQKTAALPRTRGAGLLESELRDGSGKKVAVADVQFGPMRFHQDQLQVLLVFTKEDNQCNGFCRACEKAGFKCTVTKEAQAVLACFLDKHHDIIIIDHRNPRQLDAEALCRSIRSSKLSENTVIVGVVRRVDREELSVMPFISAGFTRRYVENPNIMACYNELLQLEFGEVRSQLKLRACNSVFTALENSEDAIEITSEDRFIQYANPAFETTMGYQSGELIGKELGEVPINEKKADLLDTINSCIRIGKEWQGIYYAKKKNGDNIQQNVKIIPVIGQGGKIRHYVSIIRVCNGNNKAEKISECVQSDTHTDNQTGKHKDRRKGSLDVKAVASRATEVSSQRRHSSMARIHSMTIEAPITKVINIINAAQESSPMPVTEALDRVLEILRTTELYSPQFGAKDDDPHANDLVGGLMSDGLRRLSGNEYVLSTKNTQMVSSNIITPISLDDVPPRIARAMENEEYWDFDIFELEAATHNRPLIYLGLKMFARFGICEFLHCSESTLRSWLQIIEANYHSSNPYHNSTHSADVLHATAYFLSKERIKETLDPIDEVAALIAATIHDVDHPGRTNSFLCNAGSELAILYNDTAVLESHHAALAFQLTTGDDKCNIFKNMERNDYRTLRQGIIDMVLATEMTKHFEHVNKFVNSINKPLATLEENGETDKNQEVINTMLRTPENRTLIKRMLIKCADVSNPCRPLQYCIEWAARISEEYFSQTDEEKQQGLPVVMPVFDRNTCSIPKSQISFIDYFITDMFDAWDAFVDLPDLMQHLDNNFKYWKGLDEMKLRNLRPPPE
T4 sequence (Q9HCR9 whole entry): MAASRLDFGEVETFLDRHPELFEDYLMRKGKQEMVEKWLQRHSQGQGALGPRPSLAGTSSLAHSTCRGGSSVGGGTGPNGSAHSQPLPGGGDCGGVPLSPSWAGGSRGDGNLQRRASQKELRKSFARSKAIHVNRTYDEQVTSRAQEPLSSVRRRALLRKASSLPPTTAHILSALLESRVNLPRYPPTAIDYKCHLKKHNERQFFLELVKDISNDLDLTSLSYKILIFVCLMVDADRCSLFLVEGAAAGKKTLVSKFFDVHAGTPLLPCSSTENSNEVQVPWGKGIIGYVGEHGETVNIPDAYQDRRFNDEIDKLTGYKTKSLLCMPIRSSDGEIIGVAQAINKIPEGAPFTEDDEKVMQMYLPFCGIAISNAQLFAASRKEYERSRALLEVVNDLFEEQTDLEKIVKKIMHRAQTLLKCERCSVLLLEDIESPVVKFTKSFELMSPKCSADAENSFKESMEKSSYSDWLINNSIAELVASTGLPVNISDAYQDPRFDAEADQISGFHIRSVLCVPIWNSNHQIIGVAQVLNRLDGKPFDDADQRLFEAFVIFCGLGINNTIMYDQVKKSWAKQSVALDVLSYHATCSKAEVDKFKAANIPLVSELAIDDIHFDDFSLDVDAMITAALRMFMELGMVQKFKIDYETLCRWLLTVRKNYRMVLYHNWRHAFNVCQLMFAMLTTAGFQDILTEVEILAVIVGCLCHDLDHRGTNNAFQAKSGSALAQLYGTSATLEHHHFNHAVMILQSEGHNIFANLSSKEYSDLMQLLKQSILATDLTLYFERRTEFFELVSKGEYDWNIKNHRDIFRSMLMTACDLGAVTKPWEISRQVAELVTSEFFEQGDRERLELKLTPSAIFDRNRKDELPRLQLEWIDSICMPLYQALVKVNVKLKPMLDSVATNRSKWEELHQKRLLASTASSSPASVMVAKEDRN
T3 sequence (O76083 whole entry): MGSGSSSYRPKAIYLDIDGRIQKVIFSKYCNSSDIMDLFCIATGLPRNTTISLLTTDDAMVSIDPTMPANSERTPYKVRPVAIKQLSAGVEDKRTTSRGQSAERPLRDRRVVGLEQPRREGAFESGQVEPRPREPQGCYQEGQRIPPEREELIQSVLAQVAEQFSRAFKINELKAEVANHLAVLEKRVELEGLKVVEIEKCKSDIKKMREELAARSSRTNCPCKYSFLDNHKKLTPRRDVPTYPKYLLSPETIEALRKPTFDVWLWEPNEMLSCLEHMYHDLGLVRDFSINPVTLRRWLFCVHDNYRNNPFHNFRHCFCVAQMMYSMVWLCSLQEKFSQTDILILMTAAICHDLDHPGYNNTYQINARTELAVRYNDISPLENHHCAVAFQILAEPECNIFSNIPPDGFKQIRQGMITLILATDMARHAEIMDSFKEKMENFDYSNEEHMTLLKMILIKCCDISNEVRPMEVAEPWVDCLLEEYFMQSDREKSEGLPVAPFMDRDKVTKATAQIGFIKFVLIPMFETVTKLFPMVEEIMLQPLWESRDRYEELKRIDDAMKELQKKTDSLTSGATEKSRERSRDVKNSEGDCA

Turning to `COc1cc2c(cc1OC)-c1c/c(=N\c3c(C)cc(C)cc3C)n(C)c(=O)n1CC2` [trequinsin], the IC50 – broadly, the concentration needed to halve the response being measured – at PDE6 was 1200 nM; against PDE3B it was 0.05 nM; on PDE9A, over 10000 nM; on PDE11A, 1000 nM; against PDE2A, 785 nM; on PDE5, 870 nM. The 50% inhibitory concentration (IC50) at PDE10A is 49.8 nM; against PDE7B, over 10000 nM; against PDE3A it was 0.023 nM; at PDE8A it was 8000 nM.
